The nature of series [1]: Lipophilicity, log D of the compound. Conditions: octanol/water. The format is physicochemical.
Series [2] in a line: Clearance in human hepatocytes assessed per 10^6 cells. In kind it is ADME, cell-based, Hepatocyte. Conditions: read-out: CLH.
Series [3] deals with MDR1. Kind of series: Apparent permeability from basolateral to apical side of MDCK2 cells expressing human MDR1 at 10 uM. In kind it is ADME, cell-based, Canis lupus familiaris, MDCK-II. The conditions noted are these: dog, MDCK-MDR1.
The subject of series [4] is MDR1. Kind of series: Apparent permeability from apical to basolateral side of MDCK2 cells expressing human MDR1 at 10 uM. In kind it is ADME, cell-based, Canis lupus familiaris, MDCK-II. The conditions noted are these: dog, MDCK-MDR1.
Series [5] can be described thus: Clearance in rat at 4 umol/kg, iv. Conditions: in vivo. In kind it is ADME, organism-based.
Series [6] is described as follows: Clearance in CD1 mouse at 10 umol/kg, iv. In kind it is ADME, organism-based. The conditions noted are these: in vivo.
Series [7] is described as follows: Oral bioavailability in CD1 mouse at 20 umol/kg. Conditions: in vivo. The format is ADME, organism-based.
Series [8] is described as follows: Oral bioavailability in rat. Conditions: in vivo.
Series [9] can be described thus: Oral bioavailability in rat at 6 umol/kg. The format is ADME, organism-based. The conditions noted are these: in vivo.
Series [10] is described as follows: Clearance in rat at 1 umol/kg, iv. The format is ADME, organism-based. Conditions: in vivo.

What is called logD is lipophilicity at a set pH, counting ionised and neutral species. Higher therefore signals higher lipophilicity. One may read the Papp B→A as how fast a substance crosses the layer from the basolateral side. One may read the Papp A→B as how fast a substance crosses the layer from the apical side. Broadly, the clearance is a measure of how efficiently the substance is removed, as volume per time. High values mean a high capacity for elimination, low ones a low capacity for elimination. Broadly, the bioavailability is dose-corrected exposure relative to a reference, in per cent. A lower bioavailability goes with little systemic uptake.

In series [1], `C[C@@H]1CN(c2nc(N3CCOC[C@@H]3C)c3ncc(-c4ccccc4)nc3n2)C[C@H](C)O1` showed a logD greater than 4.

With `COc1ccc(-c2ccc3c(N4CCOC[C@@H]4C)nc(N4CCOC[C@@H]4C)nc3n2)cc1C(C)O` (some centres undefined), in series [2], the hepatocyte CLint was 37.8 µL/min/1e6 cells.

For `COc1ccc(-c2ccc3c(N4CCOC[C@@H]4C)nc(N4CCOC[C@@H]4C)nc3n2)cc1C(N)=O`, the hepatocyte CLint in series [2] amounted to 33.2 µL/min/1e6 cells.

`CNC(=O)c1cc(-c2ccc3c(N4CCOC[C@@H]4C)nc(N4CCOC[C@@H]4C)nc3n2)ccc1OC`: in series [2], the hepatocyte CLint is 14.3 µL/min/1e6 cells.

`COc1ccc(-c2ccc3c(N4CCOC[C@@H]4C)nc(N4CCOC[C@@H]4C)nc3n2)cc1C(=O)N(C)C`: the hepatocyte CLint in series [2] was 4.3 µL/min/1e6 cells.

Consider `CNC(=O)c1cc(-c2ccc3c(N4CCOC[C@@H]4C)nc(N4CCOC[C@@H]4C)nc3n2)ccc1OC(F)F`, for which the hepatocyte CLint in [2] was found to be 14.9 µL/min/1e6 cells.

As to `C[C@H]1COCCN1c1nc(N2CCOC[C@@H]2C)c2ccc(-c3ccc4nc[nH]c(=O)c4c3)nc2n1`, the hepatocyte CLint in [2] came out at 176 µL/min/1e6 cells.

As for `C[C@H]1COCCN1c1nc(N2CCOC[C@@H]2C)c2ccc(-c3cccc(C(=O)NCCO)c3)nc2n1`, the hepatocyte CLint in [2] was less than 5.4 µL/min/1e6 cells.

On to `COc1ccc(-c2ccc3c(N4CCOCC4)nc(N4C[C@@H](C)O[C@@H](C)C4)nc3n2)cc1CNCCO`, for which, in series [3], the Papp B→A at 10 µM came to 16.6 ×10⁻⁶ cm/s. Also, the Papp A→B at 10 µM in series [4] was 45.3 ×10⁻⁶ cm/s.

The compound `C[C@@H]1CN(c2nc(N3CCOC[C@@H]3C)c3ccc(-c4ccccc4)nc3n2)C[C@H](C)O1` gave a logD in [1] of 3.75.

`COc1ccc(-c2ccc3c(N4CCOC[C@@H]4C)nc(N4CCOC[C@@H]4C)nc3n2)cc1CO` [AZD-8055]: the clearance turned out to be 36.6 mL/min/kg in [5] and 42.8 mL/min/kg in series [6]. The bioavailability was found to be 81% in series [7] and 12% in series [8]. Moreover, in series [2], the hepatocyte CLint was 36.4 µL/min/1e6 cells. Also, in series [1], the logD amounted to 3.23.

On to `COc1ccc(-c2ccc3c(N4CCOCC4)nc(N4C[C@@H](C)O[C@@H](C)C4)nc3n2)cc1CO` [Ku-0063794], for which the Papp B→A at 10 µM in [3] came to 15 ×10⁻⁶ cm/s. The Papp A→B at 10 µM in series [4] came to 2.6 ×10⁻⁶ cm/s. For the same compound, the values for the bioavailability in series [9] and in series [7] were 33% and 61%, respectively. The clearance was 35.8 mL/min/kg in [10] and 3.1 mL/min/kg in series [6].

Turning to `CNC(=O)c1cccc(-c2ccc3c(N4CCOC[C@@H]4C)nc(N4CCOC[C@@H]4C)nc3n2)c1` [VISTUSERTIB], the clearance was found to be 12.6 mL/min/kg in series [5] and 10.4 mL/min/kg in [6]. The bioavailability was greater than 100% in series [7] and 40% in series [8]. In addition, the hepatocyte CLint in [2] was less than 4.2 µL/min/1e6 cells. In series [1], this compound gave a logD of 3.16.

For the origin of these results see ChEMBL document CHEMBL2331448, “Optimization of potent and selective dual mTORC1 and mTORC2 inhibitors: the discovery of AZD8055 and AZD2014” (Bioorg Med Chem Lett, 2013).
